Results from ChEMBL document CHEMBL4190186 (Medchemcomm, 2016).
The source made the active and inactive calls. No cut-off for these calls is given here.

Key:
T98G [1] = test: Cytotoxicity against PTEN/TP53 deficient human T98G cells assessed as cell death at 20 uM after 48 hrs by MTT assay relative to control; assay type: functional
LN-18 [2] = test: Cytotoxicity against human LN18 cells harboring TP53 mutation assessed as cell death at 20 uM after 48 hrs by MTT assay relative to control; assay type: functional
LN-18 [3] = test: Induction of apoptosis in human LN18 cells harboring TP53 mutation assessed as increase in cleaved PARP expression at 20 uM after 24 to 48 hrs by Western blot analysis; assay type: functional, cell-based
T98G [4] = test: Effect on H3K27me3 levels in PTEN/TP53 deficient human T98G cells at 20 uM after 24 to 48 hrs by Western blot analysis; assay type: ADME, cell-based
LN-18 [5] = test: Effect on H3K27me3 levels in human LN18 cells harboring TP53 mutation at 20 uM after 24 to 48 hrs by Western blot analysis; assay type: ADME, cell-based; settings: ln-18, 20 µM
Astrocyte = test: Cytotoxicity against rat primary cortical astrocytes assessed as reduction in cell viability at 5 to 40 uM after 48 hrs by MTT assay relative to control; assay type: cell-based
T98G [6] = test: Induction of apoptosis in PTEN/TP53 deficient human T98G cells assessed as increase in cleaved caspase-3 expression at 20 uM after 24 to 48 hrs by Western blot analysis; assay type: functional, cell-based
LN-18 [7] = test: Induction of apoptosis in human LN18 cells harboring TP53 mutation assessed as increase in cleaved caspase-9 expression at 20 uM after 24 to 48 hrs by Western blot analysis; assay type: functional, cell-based
T98G [8] = test: Cytotoxicity against PTEN/TP53 deficient human T98G cells after 48 hrs by MTT assay; assay type: functional, cell-based
LN-18 [9] = test: Induction of apoptosis in human LN18 cells harboring TP53 mutation assessed as increase in cleaved caspase-8 expression at 20 uM after 24 to 48 hrs by Western blot analysis; assay type: functional, cell-based
T98G [10] = test: Induction of apoptosis in PTEN/TP53 deficient human T98G cells assessed as increase in cleaved caspase-8 expression at 20 uM after 24 to 48 hrs by Western blot analysis; assay type: functional, cell-based
LN-18 [11] = test: Induction of apoptosis in human LN18 cells harboring TP53 mutation assessed as increase in cleaved caspase-3 expression at 20 uM after 24 to 48 hrs by Western blot analysis; assay type: functional, cell-based
LN-18 [12] = test: Cytotoxicity against human LN18 cells harboring TP53 mutation after 48 hrs by MTT assay; assay type: functional, cell-based
T98G [13] = test: Induction of apoptosis in PTEN/TP53 deficient human T98G cells assessed as increase in cleaved caspase-9 expression at 20 uM after 24 to 48 hrs by Western blot analysis; assay type: functional, cell-based
T98G [14] = test: Induction of apoptosis in PTEN/TP53 deficient human T98G cells assessed as increase in cleaved PARP expression at 20 uM after 24 to 48 hrs by Western blot analysis; assay type: functional, cell-based
NCI-H460 = test: Cytotoxicity against human NCI-H460 cells; assay type: functional, cell-based

SMILES: O=C1Nc2ccccc2/C1=C/c1ccc(-c2ccccc2)cc1
- Activity (T98G [1]): Active
- Activity (LN-18 [2]): Active

SMILES: O=C(Nc1ccccc1)Nc1ccc(/C=C2\C(=O)N(O)c3ccccc32)cc1
- Activity (T98G [1]): inactive
- Activity (LN-18 [2]): inactive

SMILES: Cc1[nH]c2ccccc2c1/C=C/c1ccccc1-c1ccc(/C=C/C(=O)NO)cc1
- Activity (LN-18 [3]): Active
- Activity (T98G [4]): Non-Toxic
- Activity (LN-18 [5]): Non-Toxic
- Activity (Astrocyte): Non-Toxic
- Activity (T98G [1]): >70%
- Activity (T98G [6]): Active
- Activity (LN-18 [2]): >70%
- Activity (LN-18 [7]): Active
- Activity (T98G [8]): Dose-dependent effect
- Activity (LN-18 [9]): Active
- Activity (T98G [10]): Active
- Activity (LN-18 [11]): Active
- Activity (LN-18 [12]): Dose-dependent effect
- Activity (T98G [13]): Active
- Activity (T98G [14]): Active

SMILES: O=C1Nc2ccc(Cl)cc2/C1=C/c1ccc(-c2ccccc2)cc1
- Activity (T98G [1]): Active
- Activity (LN-18 [2]): Active

SMILES: O=C(Nc1ccccc1)Nc1ccc(/C=C2\C(=O)Nc3ccccc32)cc1
- Activity (T98G [1]): inactive
- Activity (LN-18 [2]): inactive

SMILES: Nc1nsc2c1C(=O)c1ccccc1C2=O
- IC50 (NCI-H460): 280 nM
- Activity (T98G [1]): >50 - 70%
- Activity (LN-18 [2]): >50 - 70%

SMILES: CN(C)c1nsc2c1C(=O)c1ccccc1C2=O
- Activity (LN-18 [3]): inactive
- Activity (T98G [4]): Non-Toxic
- IC50 (NCI-H460): 220 nM
- Activity (LN-18 [5]): Non-Toxic
- Activity (T98G [1]): >50 - 70%
- Activity (T98G [6]): inactive
- Activity (LN-18 [2]): >50 - 70%
- Activity (LN-18 [7]): inactive
- Activity (T98G [8]): Dose-dependent effect
- Activity (LN-18 [9]): inactive
- Activity (T98G [10]): inactive
- Activity (LN-18 [11]): inactive
- Activity (LN-18 [12]): Dose-dependent effect
- Activity (T98G [13]): inactive
- Activity (T98G [14]): inactive

SMILES: CON1C(=O)/C(=C\c2ccc(-c3ccccc3)cc2)c2ccccc21
- Activity (T98G [1]): Active
- Activity (LN-18 [2]): Active

SMILES: NNC(=O)/C=C/c1ccc(-c2ccccc2)cc1
- Activity (T98G [1]): Active
- Activity (LN-18 [2]): Active

SMILES: O=C1c2ccccc2C(=O)c2c(-c3ccccc3)nsc21
- Activity (LN-18 [3]): inactive
- Activity (T98G [4]): Non-Toxic
- IC50 (NCI-H460): 360 nM
- Activity (LN-18 [5]): Non-Toxic
- Activity (Astrocyte): > 50%
- Activity (T98G [1]): >50 - 70%
- Activity (T98G [6]): inactive
- Activity (LN-18 [2]): >50 - 70%
- Activity (LN-18 [7]): inactive
- Activity (T98G [8]): Dose-dependent effect
- Activity (LN-18 [9]): inactive
- Activity (T98G [10]): inactive
- Activity (LN-18 [11]): inactive
- Activity (LN-18 [12]): Dose-dependent effect
- Activity (T98G [13]): inactive
- Activity (T98G [14]): inactive

SMILES: COc1ccc(-c2ccc(/C=C/C(=O)NO)cc2)cc1
- Activity (T98G [1]): Active
- Activity (LN-18 [2]): Active

SMILES: NNC(=O)N/C=C/c1ccc(-c2ccccc2)cc1
- Activity (T98G [1]): Active
- Activity (LN-18 [2]): Active

SMILES: O=C(/C=C/c1ccc(-c2ccccc2)cc1)NO
- Activity (T98G [1]): Active
- Activity (LN-18 [2]): Active

SMILES: Cc1[nH]c2ccccc2c1/C=C/c1ccccc1-c1ccc(/C=C/C(=O)Nc2cc(-c3ccccc3)ccc2O)cc1
- Activity (T98G [1]): Active
- Activity (LN-18 [2]): Active

SMILES: O=C1/C(=C\c2ccc(O)cc2)c2ccccc2N1O
- Activity (T98G [1]): inactive
- Activity (LN-18 [2]): inactive

SMILES: O=C1/C(=C\c2ccc(-c3ccccc3)cc2)c2ccccc2N1O
- Activity (T98G [1]): Active
- Activity (LN-18 [2]): Active
